Experimental data: ChEMBL document CHEMBL4138172, “Synthesis of bis-indolylmethanes as new potential inhibitors of β-glucuronidase and their molecular docking studies” (Eur J Med Chem, 2018)
pIC50: −log10 of the molar value.

Biological target: T1, Beta-glucuronidase (Homo sapiens, UniProt P08236)
T1 sequence (P08236 whole entry): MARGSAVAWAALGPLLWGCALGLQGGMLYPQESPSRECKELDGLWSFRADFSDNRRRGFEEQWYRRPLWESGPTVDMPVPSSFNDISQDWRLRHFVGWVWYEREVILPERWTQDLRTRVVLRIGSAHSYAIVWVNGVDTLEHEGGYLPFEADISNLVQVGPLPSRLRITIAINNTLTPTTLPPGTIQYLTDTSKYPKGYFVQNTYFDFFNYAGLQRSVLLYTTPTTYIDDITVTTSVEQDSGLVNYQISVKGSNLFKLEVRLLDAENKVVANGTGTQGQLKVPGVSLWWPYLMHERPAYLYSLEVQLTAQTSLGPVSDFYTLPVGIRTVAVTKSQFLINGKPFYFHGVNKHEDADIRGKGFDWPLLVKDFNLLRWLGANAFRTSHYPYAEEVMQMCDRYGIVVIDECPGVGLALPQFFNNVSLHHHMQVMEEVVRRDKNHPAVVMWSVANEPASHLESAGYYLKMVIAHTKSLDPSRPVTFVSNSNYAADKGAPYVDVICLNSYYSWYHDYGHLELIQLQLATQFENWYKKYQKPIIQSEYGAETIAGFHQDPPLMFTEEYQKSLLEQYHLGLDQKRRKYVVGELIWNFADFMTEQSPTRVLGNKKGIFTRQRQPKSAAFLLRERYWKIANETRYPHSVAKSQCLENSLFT
Experiment: Inhibition of human beta-glucuronidase

Row | Compound | pIC50
1 | Cc1ccc(C(c2c[nH]c3ccc(C(=O)N/N=C/c4ccccn4)cc23)c2c[nH]c3ccc(C(=O)N/N=C/c4ccccn4)cc23)cc1 | 4.88
2 | Cc1ccc(/C=N/NC(=O)c2ccc3[nH]cc(C(c4ccc(C)cc4)c4c[nH]c5ccc(C(=O)N/N=C/c6ccc(C)cc6)cc45)c3c2)cc1 | 4.90
3 | Cc1ccc(C(c2c[nH]c3ccc(C(=O)N/N=C/c4cc(O)ccc4O)cc23)c2c[nH]c3ccc(C(=O)N/N=C/c4cc(O)ccc4O)cc23)cc1 | 5.94
4 | Cc1ccc(C(c2c[nH]c3ccc(C(=O)N/N=C/c4cccc(O)c4)cc23)c2c[nH]c3ccc(C(=O)N/N=C/c4cccc(O)c4)cc23)cc1 | 5.23
5 | Cc1ccc(C(c2c[nH]c3ccc(C(=O)N/N=C/c4ccccc4C)cc23)c2c[nH]c3ccc(C(=O)N/N=C/c4ccccc4C)cc23)cc1 | 4.65
6 | Cc1ccc(C(c2c[nH]c3ccc(C(=O)N/N=C/c4cccc([N+](=O)[O-])c4)cc23)c2c[nH]c3ccc(C(=O)N/N=C/c4cccc([N+](=O)[O-])c4)cc23)cc1 | 5.12
7 | COc1ccc(O)c(/C=N/NC(=O)c2ccc3[nH]cc(C(c4ccc(C)cc4)c4c[nH]c5ccc(C(=O)N/N=C/c6cc(OC)ccc6O)cc45)c3c2)c1 | 5.68
8 | Cc1ccc(C(c2c[nH]c3ccc(C(=O)N/N=C/c4ccccc4[N+](=O)[O-])cc23)c2c[nH]c3ccc(C(=O)N/N=C/c4ccccc4[N+](=O)[O-])cc23)cc1 | 4.31
9 | Cc1ccc(C(c2c[nH]c3ccc(C(=O)N/N=C/c4cccnc4)cc23)c2c[nH]c3ccc(C(=O)N/N=C/c4cccnc4)cc23)cc1 | 4.48
10 | Cc1ccc(C(c2c[nH]c3ccc(C(=O)N/N=C/c4cccc(Cl)c4)cc23)c2c[nH]c3ccc(C(=O)N/N=C/c4cccc(Cl)c4)cc23)cc1 | 5.16
11 | Cc1ccc(C(c2c[nH]c3ccc(C(=O)N/N=C/c4ccc(Cl)cc4)cc23)c2c[nH]c3ccc(C(=O)N/N=C/c4ccc(Cl)cc4)cc23)cc1 | 5.24
12 | COc1ccc(/C=N/NC(=O)c2ccc3[nH]cc(C(c4ccc(C)cc4)c4c[nH]c5ccc(C(=O)N/N=C/c6ccc(OC)cc6)cc45)c3c2)cc1 | 4.48
13 | Cc1ccc(C(c2c[nH]c3ccc(C(=O)N/N=C/c4ccc(F)c(Br)c4)cc23)c2c[nH]c3ccc(C(=O)N/N=C/c4ccc(F)c(Br)c4)cc23)cc1 | 4.80
14 | Cc1ccc(C(c2c[nH]c3ccc(C(=O)N/N=C/c4ccc(O)cc4)cc23)c2c[nH]c3ccc(C(=O)N/N=C/c4ccc(O)cc4)cc23)cc1 | 5.63
15 | COc1ccc(/C=N/NC(=O)c2ccc3[nH]cc(C(c4ccc(C)cc4)c4c[nH]c5ccc(C(=O)N/N=C/c6ccc(OC)c(O)c6I)cc45)c3c2)c(I)c1O | 4.36
16 | Cc1ccc(C(c2c[nH]c3ccc(C(=O)N/N=C/c4cc(O)c(O)cc4O)cc23)c2c[nH]c3ccc(C(=O)N/N=C/c4cc(O)c(O)cc4O)cc23)cc1 | 7.00

Row | Compound | pIC50
17 | COc1ccc(/C=N/NC(=O)c2ccc3[nH]cc(C(c4ccc(C)cc4)c4c[nH]c5ccc(C(=O)N/N=C/c6ccc(OC)c(O)c6)cc45)c3c2)cc1O | 5.57
18 | Cc1ccc(C(c2c[nH]c3ccc(C(=O)N/N=C/c4ccccc4F)cc23)c2c[nH]c3ccc(C(=O)N/N=C/c4ccccc4F)cc23)cc1 | 5.92
19 | Cc1ccc(C(c2c[nH]c3ccc(C(=O)N/N=C/c4cccc(O)c4O)cc23)c2c[nH]c3ccc(C(=O)N/N=C/c4cccc(O)c4O)cc23)cc1 | 7.00
20 | COc1ccc(/C=N/NC(=O)c2ccc3[nH]cc(C(c4ccc(C)cc4)c4c[nH]c5ccc(C(=O)N/N=C/c6ccc(OC)cc6O)cc45)c3c2)c(O)c1 | 5.46
21 | Cc1ccc(C(c2c[nH]c3ccc(C(=O)N/N=C/c4cccc(C)c4)cc23)c2c[nH]c3ccc(C(=O)N/N=C/c4cccc(C)c4)cc23)cc1 | 4.47
22 | Cc1ccc(C(c2c[nH]c3ccc(C(=O)N/N=C/c4ccccc4)cc23)c2c[nH]c3ccc(C(=O)N/N=C/c4ccccc4)cc23)cc1 | 4.37
23 | Cc1ccc(C(c2c[nH]c3ccc(C(=O)N/N=C/c4ccc(Cl)cc4Cl)cc23)c2c[nH]c3ccc(C(=O)N/N=C/c4ccc(Cl)cc4Cl)cc23)cc1 | 5.96
24 | Cc1ccc(C(c2c[nH]c3ccc(C(=O)N/N=C/C=C/c4ccccc4)cc23)c2c[nH]c3ccc(C(=O)N/N=C/C=C/c4ccccc4)cc23)cc1 | 5.53
25 | Cc1ccc(C(c2c[nH]c3ccc(C(=O)N/N=C/c4ccc(O)cc4O)cc23)c2c[nH]c3ccc(C(=O)N/N=C/c4ccc(O)cc4O)cc23)cc1 | 6.52
26 | Cc1ccc(C(c2c[nH]c3ccc(C(=O)N/N=C/c4ccc(O)c(O)c4)cc23)c2c[nH]c3ccc(C(=O)N/N=C/c4ccc(O)c(O)c4)cc23)cc1 | 6.52
27 | Cc1ccc(C(c2c[nH]c3ccc(C(=O)N/N=C/c4ccncc4)cc23)c2c[nH]c3ccc(C(=O)N/N=C/c4ccncc4)cc23)cc1 | 4.63
28 | Cc1ccc(C(c2c[nH]c3ccc(C(=O)N/N=C/c4ccccc4Cl)cc23)c2c[nH]c3ccc(C(=O)N/N=C/c4ccccc4Cl)cc23)cc1 | 5.55
29 | Cc1ccc(C(c2c[nH]c3ccc(C(=O)N/N=C/c4cccc(F)c4)cc23)c2c[nH]c3ccc(C(=O)N/N=C/c4cccc(F)c4)cc23)cc1 | 5.66
30 | Cc1ccc(C(c2c[nH]c3ccc(C(=O)N/N=C/c4ccc(F)cc4)cc23)c2c[nH]c3ccc(C(=O)N/N=C/c4ccc(F)cc4)cc23)cc1 | 5.55
31 | Cc1ccc(C(c2c[nH]c3ccc(C(=O)N/N=C/c4ccccc4O)cc23)c2c[nH]c3ccc(C(=O)N/N=C/c4ccccc4O)cc23)cc1 | 5.82
32 | Cc1ccc(C(c2c[nH]c3ccc(C(=O)N/N=C/c4c(O)cc(O)cc4O)cc23)c2c[nH]c3ccc(C(=O)N/N=C/c4c(O)cc(O)cc4O)cc23)cc1 | 6.70
